Measured values published in patent publication US9913905B2 (EAGLE BIOLOGICS, INC., priority 2013, dated 2018).
“And” between values parts separate entries of the source, which are not always exact repeats. Identical values can stand only once.

Columns and labels:
biosimilar AVASTIN® = assay: Viscosity of concentrated aqueous solutions of biosimilar AVASTIN® (mVROC microfluidic viscometer); type: physicochemical
Method: All viscosities of well-mixed aqueous mAb solutions were measured using either a mVROC microfluidic viscometer (RheoSense) or a DV2T cone and plate viscometer (Brookfield; “C & P”) after a 5 minute equilibration at 25° C. (unless otherwise indicated). The mVROC viscometer was equipped with an “A” or “B” chip, each manufactured with a 50 micron channel. Typically, 0.10 mL of protein solution was back-loaded into a gastight microlab instrument syringe (Hamilton; 100 μL), affixed to the chip, and measured at multiple flow rates, approximately 20%, 40%, and 60% of the maximum pressure for each chip. […] An average absolute viscosity and standard deviation was then calculated from at least these three measurements. The C & P viscometer was equipped with a CPE40 or CPE52 spindle (cone angle of 0.8° and 3.0°, respectively) and 0.50 mL samples were measured at multiple shear rates between 2 and 400 s^−1. […] An extrapolated zero-shear viscosity was then determined from a plot of dynamic viscosity versus shear rate for the samples measured on a DV2T cone and plate viscometer. The extrapolated zero-shear viscosities reported are the average and standard deviation of at least three measurements.
First, Polysorbate 20 was removed using DETERGENT-OUT® TWEEN Medi Columns (G-Biosciences). […] Then, an appropriate amount of viscosity-reducing organophosphate solution (pH 7.0) was added to each aliquot such that upon reconstitution with water, the final excipient concentration was 0.10-0.25 M. The protein solutions were then freeze-dried. The dried protein cakes, containing protein and viscosity-reducing organophosphate (and a negligible amount of buffer salts) were reconstituted to a final volume of approximately 0.1 mL and viscosity-reducing organophosphate concentration as previously described. […] The dried protein cakes, containing protein and buffer salts were reconstituted to a final volume of approximately 0.10-0.50 mL. […] Viscosities reported were measured on a RheoSense mVROC microfluidic viscometer.
Viscosities reported were measured on a RheoSense mVROC microfluidic viscometer.

REMICADE® = assay: Viscosity of concentrated aqueous solutions of […]® (mVROC microfluidic viscometer); type: physicochemical
HERCEPTIN® = assay: Viscosity of concentrated aqueous solutions of HERCEPTIN® (mVROC microfluidic viscometer); type: physicochemical; conditions: organophosphate 0.25M
biosimilar ERBITUX® = assay: Viscosity of concentrated aqueous solutions of biosimilar ERBITUX® (mVROC microfluidic viscometer); type: physicochemical; conditions: Biosimilar ERBITUX® 215 mg/mL; excipient 0.25M
biosimilar RITUXAN® = assay: Viscosity of concentrated aqueous solutions of biosimilar RITUXAN® (mVROC microfluidic viscometer); type: physicochemical; conditions: organophosphate 0.10M
Method: (unless otherwise indicated).
A commercially-obtained biosimilar AVASTIN® (100-400 mg) containing pharmaceutical excipients (Polysorbate 20, phosphate and citrate buffers, mannitol, and NaCl) was purified. […] Samples buffer exchanged into 2 mM PB were first aliquoted. […] For samples buffer exchanged into 20 mM PB (PB control samples), the collected protein solution was freeze-dried. […] Using the same protocol, formulations containing biosimilar ERBITUX®, TYSABRI®, HERCEPTIN®, and […]® were also prepared.

[1] = system: respiratory syncytial virus; conditions: two Phase III clinical trials in the pediatric population; cited from earlier work
TYSABRI® = assay: Viscosity of concentrated aqueous solutions of TYSABRI® (mVROC microfluidic viscometer); type: physicochemical; conditions: organophosphate 0.25M
[2] = system: therapeutically relevant mAbs; conditions: in some cases; Table 3
Method: All viscosities of well-mixed aqueous mAb solutions were measured using either a mVROC microfluidic viscometer (RheoSense) or a DV2T cone and plate viscometer (Brookfield; “C & P”) after a 5 minute equilibration at 25° C. […] The mVROC viscometer was equipped with an “A” or “B” chip, each manufactured with a 50 micron channel. Typically, 0.10 mL of protein solution was back-loaded into a gastight microlab instrument syringe (Hamilton; 100 μL), affixed to the chip, and measured at multiple flow rates, approximately 20%, 40%, and 60% of the maximum pressure for each chip. […] An average absolute viscosity and standard deviation was then calculated from at least these three measurements. The C & P viscometer was equipped with a CPE40 or CPE52 spindle (cone angle of 0.8° and 3.0°, respectively) and 0.50 mL samples were measured at multiple shear rates between 2 and 400 s^−1. Specifically, samples were measured for 30 seconds each at 22.58, 24.38, 26.25, 28.13, 30, 31.88, 45, 67.5, 90, 112.5, 135, 157.5, 180, 202.5, 247, 270, 292.5, 315, 337.5, 360, 382, 400 s^−1, starting at a shear rate that gave at least 10% torque, and continuing until instrument torque reached 100%. An extrapolated zero-shear viscosity was then determined from a plot of dynamic viscosity versus shear rate for the samples measured on a DV2T cone and plate viscometer. […]

[3] = [Excipient] 0.10 M, [mAb] 217 mg/mL, 25° C., pH 7

Nc1ncnc2c1ncn2[C@@H]1O[C@H](COP(=O)(O)OP(=O)(O)O)[C@@H](O)[C@H]1O [ADP, Adenosine Diphosphate]
Viscosity (biosimilar AVASTIN®; [Excipient] 0.10 M, [mAb] 215 mg/mL, 25° C., pH 7): 76.6 ± 2.2 cP

Cc1ncc(C[n+]2csc(CCOP(=O)(O)OP(=O)(O)O)c2C)c(N)n1.[Cl-] [TPP, thiamine pyrophosphate]
Viscosity (REMICADE®; REMICADE® 158 mg/mL, organophosphate 0.10M): 100 ± 9 cP
Viscosity (REMICADE®; REMICADE® 232 mg/mL, organophosphate 0.25M): 1773 ± 304 cP
Viscosity (HERCEPTIN®; HERCEPTIN® 240 mg/mL): 156 ± 3 cP
Viscosity reducing ability among the organophosphates examined (biosimilar AVASTIN®; Table 1, biosimilar AVASTIN®): greatest viscosity reducing ability
Viscosity (biosimilar AVASTIN®; Table 2, [Excipient] 0.10 M, [biosimilar AVASTIN®] 176 mg/mL): 21.1 ± 1.7 cP
Viscosity (biosimilar AVASTIN®; Table 2, [Excipient] 0.30 M, [biosimilar AVASTIN®] 191 mg/mL): 129 ± 5 cP
Viscosity (biosimilar AVASTIN®; Table 3, Biosimilar AVASTIN® 216 mg/mL, organophosphate 0.1M): 47.6 ± 2.7 cP
Viscosity (biosimilar AVASTIN®; [Excipient] 0.10 M, [mAb] 201 mg/mL, 25° C., pH 7): 34.6 ± 2.1 cP
Viscosity (biosimilar AVASTIN®; [Excipient] 0.10 M, [mAb] 216 mg/mL, 25° C., pH 7): 47.6 ± 2.7 cP
Viscosity (biosimilar AVASTIN®; [Excipient] 0.25 M, [mAb] 210 mg/mL, 25° C., pH 7): 44.5 ± 0.9 cP
Viscosity (biosimilar ERBITUX®): 55.6 ± 4.8 cP
Viscosity (biosimilar RITUXAN®; Biosimilar RITUXAN® 193 mg/mL): 102 ± 16 cP

Nc1nc2c(ncn2[C@@H]2O[C@H](COP(=O)(O)OP(=O)(O)OP(=O)(O)O)[C@@H](O)[C@H]2O)c(=O)[nH]1 [GTP]
Viscosity (biosimilar AVASTIN®; [Excipient] 0.10 M, [mAb] 205 mg/mL, 25° C., pH 7): 150 ± 12 cP

Nc1ncnc2c1ncn2[C@H]1C[C@H](O)[C@@H](COP(=O)(O)OP(=O)(O)OP(=O)(O)O)O1 [dATP-Tris, deoxyadenosine triphosphate]
Viscosity (biosimilar AVASTIN®; [Excipient] 0.10 M, [mAb] 196 mg/mL, 25° C., pH 7): 127 ± 0.2 cP

Nc1nc2c(ncn2[C@H]2CC(O)[C@@H](COP(=O)(O)OP(=O)(O)OP(=O)(O)O)O2)c(=O)[nH]1 (some centres unmarked) [dGTP-Tris, deoxyguanosine triphosphate]
Viscosity (biosimilar AVASTIN®; [3]): 238 ± 31 cP

palivizumab: humanized mAb directed against an epitope in the A antigenic site of the F protein of respiratory syncytial virus
Reduction of the risk of hospitalization due to respiratory syncytial virus infection [1]: 55% and 45%

Cc1cn([C@H]2CC(O)[C@@H](COP(=O)(O)OP(=O)(O)OP(=O)(O)O)O2)c(=O)[nH]c1=O (some centres unmarked) [dTTP-Tris, deoxythymidine triphosphate]
Viscosity (biosimilar AVASTIN®; [Excipient] 0.10 M, [mAb] 221 mg/mL, 25° C., pH 7): 207 ± 6 cP

Nc1ncnc2c1ncn2[C@@H]1O[C@H](COP(=O)(O)OP(=O)([O-])OP(=O)([O-])O)[C@@H](O)[C@H]1O.[Na+].[Na+] [ATP, adenosine triphosphate]
Viscosity (biosimilar AVASTIN®; [Excipient] 0.10 M, [mAb] 209 mg/mL, 25° C., pH 7): 52.3 ± 2.3 cP
Viscosity (biosimilar AVASTIN®; [3]): 80.7 ± 7.1 cP

C=C(OP(=O)(O)O)C(=O)O [Phosphoenol pyruvate]
Viscosity (biosimilar AVASTIN®; [Excipient] 0.25 M, [mAb] 193 mg/mL, 25° C., pH 7): >>200 cP

Nc1ncnc2c1ncn2[C@@H]1O[C@H](COP(=O)(O)O)[C@@H](O)[C@H]1O [AMP, Adenosine Monophosphate]
Viscosity (biosimilar AVASTIN®; [Excipient] 0.10 M, [mAb] 206 mg/mL, 25° C., pH 7): 63.2 ± 1.6 cP

Cc1ncc(C[n+]2csc(CCOP(=O)(O)OP(=O)([O-])O)c2C)c(N)n1.Cc1nccn1CCCN [TPP-APMI, thiamine pyrophosphate 1-(3-aminopropyl)-2-methyl-1H-imidazole]
Viscosity (TYSABRI®; TYSABRI® 238 mg/mL): 76.3 ± 3.2 cP
Viscosity (REMICADE®; REMICADE® 223 mg/mL, organophosphate 0.25M): 316 ± 11 cP
Viscosity (HERCEPTIN®; HERCEPTIN® 221 mg/mL): 60.5 ± 0.3 cP
Viscosity (biosimilar AVASTIN®; Table 2, [Excipient] 0.10 M, [biosimilar AVASTIN®] 191 mg/mL): 23.2 ± 0.9 cP
Viscosity (biosimilar AVASTIN®; Table 2, [Excipient] 0.20 M, [biosimilar AVASTIN®] 180 mg/mL): 20.9 ± 0.4 cP
Viscosity (biosimilar AVASTIN®; Table 2, [Excipient] 0.50 M, [biosimilar AVASTIN®] 180 mg/mL): 111 ± 1 cP

Nc1ncnc2c1ncn2[C@@H]1O[C@@H]2COP(=O)(O)OC2C1O (some centres unmarked) [cAMP-Tris, cyclic adenosine monophosphate]
Viscosity (TYSABRI®; TYSABRI® 227 mg/mL): 80.1 ± 2.4 cP
Reduction of viscosity [2]: up to 9 fold
Viscosity (HERCEPTIN®; HERCEPTIN® 235 mg/mL): 79.5 ± 2.7 cP
Viscosity (biosimilar AVASTIN®; Table 2, [Excipient] 0.40 M, [biosimilar AVASTIN®] 176 mg/mL): 39.2 ± 4.3 cP
Viscosity (biosimilar AVASTIN®; Table 2, [Excipient] 0.50 M, [biosimilar AVASTIN®] 178 mg/mL): 66.1 ± 0.4 cP
Viscosity (biosimilar AVASTIN®; Table 3, Biosimilar AVASTIN® 216 mg/mL, organophosphate 0.25M): 85.7 ± 10.7 cP
Viscosity (biosimilar AVASTIN®; [Excipient] 0.25 M, [mAb] 209 mg/mL, 25° C., pH 7): 62.1 ± 1.8 cP
Viscosity (biosimilar AVASTIN®; [Excipient] 0.25 M, [mAb] 216 mg/mL, 25° C., pH 7): 85.7 ± 10.7 cP
Viscosity (biosimilar RITUXAN®; Biosimilar RITUXAN® 199 mg/mL): 62.6 ± 1.7 cP

nicotinamide adenine dinucleotide phosphate [NADP]
Viscosity (biosimilar AVASTIN®; [Excipient] 0.10 M, [mAb] 204 mg/mL, 25° C., pH 7): 165 ± 23 cP
Viscosity (biosimilar AVASTIN®; [Excipient] 0.25 M, [mAb] 186 mg/mL, 25° C., pH 7): 242 ± 16 cP

Nc1ccn([C@H]2C[C@H](O)[C@@H](COP(=O)(O)OP(=O)(O)OP(=O)(O)O)O2)c(=O)n1 [dCTP-Tris, deoxycytidine triphosphate]
Viscosity (biosimilar AVASTIN®; [3]): 325 ± 13 cP

CN(CC(=O)O)C(=N)NP(=O)(O)O [Phosphocreatine]
Viscosity (biosimilar AVASTIN®; [Excipient] 0.25 M, [mAb] 231 mg/mL, 25° C., pH 7): >>200 cP
